Target: T1, human CXCR3 (N-delta 4) (Homo sapiens, UniProt P49682)
T1 construct: CD8 leader (N); Flag tag; expressed in transfected cells; membrane preparation
T1 sequence (P49682 5-368 limits assumed): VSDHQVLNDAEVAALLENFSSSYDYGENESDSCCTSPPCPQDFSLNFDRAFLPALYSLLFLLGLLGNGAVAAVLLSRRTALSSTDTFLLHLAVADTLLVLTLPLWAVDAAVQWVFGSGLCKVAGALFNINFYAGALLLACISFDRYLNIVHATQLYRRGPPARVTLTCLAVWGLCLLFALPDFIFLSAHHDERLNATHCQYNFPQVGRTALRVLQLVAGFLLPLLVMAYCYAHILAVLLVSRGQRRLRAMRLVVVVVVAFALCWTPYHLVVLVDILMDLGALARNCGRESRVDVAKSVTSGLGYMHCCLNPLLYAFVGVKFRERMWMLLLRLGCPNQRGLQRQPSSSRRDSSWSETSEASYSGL
Assay: Human CXCR3 (N-delta 4) scintillation proximity assay (SPA), [125I] IP-10 binding to Ba/F3-hCXCR3 membranes
Details: IC50 rating; [125I] IP-10 displacement, human CXCR3; read-out: IC50
Outline: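 Membranes from Ba/F3 cells expressing Flag-tagged hCXCR3 (N-delta 4), 2 μg/point, precoupled to WGA SPA beads. Binding of 25 pM [125I] IP-10 measured with titrated compounds, 3 hr at room temperature, in HEPES buffer with CaCl2, MgCl2, NaCl and 1.0% BSA; bound tracer read by scintillation counting.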

Compound	IC50
Cc1cc(OCc2ccccc2)cc(C)c1C(=O)N1CCC(N2C[C@H](C)N(c3ncc(Nc4c(NCC(F)(F)F)c(=O)c4=O)cc3Cl)C[C@H]2C)CC1 [Compound 140]	> 100 nM
CC[C@H]1CN(c2ncc(NC3=NS(=O)(=O)N=C3NC(C)(C)C)cc2Cl)CCN1C1CCN(Cc2ccc(Cl)cc2C#N)CC1 [Compound 267]	> 100 nM
CC[C@H]1CN(c2c(F)cc(Nc3c(NC4CC4)c(=O)c3=O)cc2Cl)CCN1C1CCN(Cc2ccc(Cl)cc2F)CC1 [Compound 105]	25 to 100 nM
CC[C@H]1CN(c2ncc(NC3=NS(=O)(=O)N=C3NC3CC3)cc2Cl)CCN1C1CCN(Cc2ccc(Cl)cc2C(=N)NO)CC1 [Compound 236]	< 25 nM
CC[C@H]1CN(c2ncc(NS(C)(=O)=O)cc2Cl)CCN1C1CCN(Cc2ccc(Cl)cc2NS(C)(=O)=O)CC1 [Compound 52]	> 100 nM
CC[C@H]1CN(c2ncc(Nc3c(NC4CCC4)c(=O)c3=O)cc2Cl)CCN1C1CCN(C(=O)c2ccc(Cl)cc2)CC1 [Compound 107]	25 to 100 nM
CC[C@H]1CN(c2ncc(NS(C)(=O)=O)cc2Cl)CCN1C1CCN(Cc2ccc(Br)cc2)CC1 [Compound 5]	< 25 nM
CC[C@H]1CN(c2ncc(NS(C)(=O)=O)cc2Cl)CCN1C1CCN(Cc2ccc(OC(F)F)cc2)CC1 [Compound 13]	< 25 nM
CC[C@H]1CN(c2ncc(NC3=NS(=O)(=O)N=C3NCCO)cc2Cl)CCN1C1CCN(Cc2ccc(OC(F)(F)F)cc2)CC1 [Compound 239]	< 25 nM
CC[C@H]1CN(c2ncc(Nc3c(N(C)C)c(=O)c3=O)cc2Cl)CCN1C1CCN([C@H](C(=O)NC)c2ccc(Cl)cc2)CC1 [Compound 128]	> 100 nM
C[C@@H]1CN(c2ncc(Nc3c(NCC(F)(F)F)c(=O)c3=O)cc2Cl)[C@@H](C)CN1C1CCN(Cc2cc(Cl)cc(Cl)c2)CC1 [Compound 159]	> 100 nM
CC[C@H]1CN(c2ncc(NS(C)(=O)=O)cc2Cl)CCN1C1CCN(Cc2c(F)cc(F)cc2F)CC1 [Compound 47]	> 100 nM
CC[C@H]1CN(c2ncc(NC3=NS(=O)(=O)N=C3NC3CC3)cc2Cl)CCN1C1CCN(Cc2ccc(Cl)cc2-c2nnc(Br)[nH]2)CC1 [Compound 270]	> 100 nM
CC(=O)Nc1ccc(CN2CCC(N3C[C@H](C)N(c4ncc(Nc5c(NCC(F)(F)F)c(=O)c5=O)cc4Cl)C[C@H]3C)CC2)cc1 [Compound 147]	> 100 nM
C[C@@H]1CN(c2ncc(NC3C(=O)C(=O)C3NCC(F)(F)F)cc2Cl)[C@@H](C)CN1C1CCN(Cc2ccc3ccccc3c2)CC1 (stereo partly shown) [Compound 122]	> 100 nM
CC[C@H]1CN(c2ncc(NS(C)(=O)=O)cc2Cl)CCN1C1CCN(Cc2ccc(Cl)cc2[N+](=O)[O-])CC1 [Compound 28]	25 to 100 nM
CC(C)C1CCC(N2CCC(N3C[C@H](C)N(c4ncc(Nc5c(NCC(F)(F)F)c(=O)c5=O)cc4Cl)C[C@H]3C)CC2)CC1 (stereo partly shown) [Compound 127]	> 100 nM
CC[C@H]1CN(c2ncc(N/C(=N/C#N)NCCO)cc2Cl)CCN1C1CCN(Cc2ccc(Cl)cc2F)CC1 [Compound 214]	> 100 nM
CC[C@H]1CN(c2ncc(NC3=NS(=O)(=O)N=C3N3CCOCC3)cc2Cl)CCN1C1CCN(Cc2ccc(OC(F)(F)F)cc2)CC1 [Compound 261]	25 to 100 nM

Compound	IC50
CC[C@H]1CN(c2ncc(NS(C)(=O)=O)cc2Cl)CCN1C1CCN(Cc2ccc(Br)cc2F)CC1 [Compound 8]	< 25 nM
CC[C@H]1CN(c2ncc(NC3=NS(=O)(=O)N=C3NCCN)cc2Cl)CCN1C1CCN(Cc2ccc(Cl)cc2F)CC1 [Compound 279]	> 100 nM
CC[C@H]1CN(c2ncc(NC3=NS(=O)(=O)N=C3N)cc2Cl)CCN1C1CCN(Cc2ccc(Cl)cc2F)CC1 [Compound 259]	25 to 100 nM
C[C@@H]1CN(C2CCN(Cc3ccc(Cl)cc3F)CC2)[C@@H](C)CN1c1ncc(Nc2c(NCC(F)(F)F)c(=O)c2=O)cc1Cl [Compound 104]	25 to 100 nM
CC[C@H]1CN(c2ncc(Nc3c(NCC(=O)OC(C)(C)C)c(=O)c3=O)cc2Cl)CCN1C1CCN([C@@H](CO)c2ccc(Cl)cc2)CC1 [Compound 139]	> 100 nM
CC[C@H]1CN(c2ncc(NS(C)(=O)=O)cc2Cl)CCN1C1CCN(Cc2ccc(Cl)cc2NC)CC1 [Compound 14]	< 25 nM
CC[C@H]1CN(c2ncc(Nc3c(OC)c(=O)c3=O)cc2Cl)CCN1C1CCN(Cc2ccc(Cl)cc2F)CC1 [Compound 106]	25 to 100 nM
C[C@@H]1CN(c2ncc(Nc3c(NCC(F)(F)F)c(=O)c3=O)cc2Cl)[C@@H](C)CN1C1CCN(Cc2ccc3c(c2)OCO3)CC1 [Compound 120]	> 100 nM
CC[C@H]1CN(c2ncc(NC3=NS(=O)(=O)N=C3NCC(F)(F)F)cc2Cl)CCN1C1CCN(Cc2ccc(F)c(F)c2)CC1 [Compound 264]	> 100 nM
CC[C@H]1CN(c2ncc(NS(=O)(=O)C(C)C)cc2Cl)CCN1C1CCN(Cc2ccc(Cl)cc2F)CC1 [Compound 29]	25 to 100 nM
CC[C@H]1CN(c2ncc(Nc3c(NCC(F)(F)F)c(=O)c3=O)cc2Cl)CCN1C1CCN(Cc2ccc(Cl)cc2F)CC1 [Compound 75]	< 25 nM
C[C@H]1CN(c2ncc(NS(C)(=O)=O)cc2Cl)CCN1C1CCN(CCCc2ccc(Cl)cc2)CC1 [Compound 57]	> 100 nM
CC[C@H]1CN(c2ncc(NC3=NS(=O)(=O)N=C3N(C)C)cc2Cl)CCN1C1CCN(Cc2ccc(F)c(F)c2)CC1 [Compound 272]	> 100 nM
CC[C@H]1CN(c2ncc(NS(N)(=O)=O)cc2Cl)CCN1C1CCN(C(CO)c2ccc(Cl)cc2)CC1 (stereo partly shown) [Compound 3]	< 25 nM
CC[C@H]1CN(c2ncc(Nc3c(NC4CC4)c(=O)c3=O)cc2Cl)CCN1C1CCN(C(=O)c2ccc(Cl)cc2N)CC1 [Compound 111]	25 to 100 nM
CC[C@H]1CN(c2ncc(NC(=O)NN)cc2Cl)CCN1C1CCN(Cc2ccc(Cl)cc2F)CC1 [Compound 188]	25 to 100 nM
CC[C@H]1CN(c2ncc(NC3=NS(=O)(=O)N=C3NC3CC3)cc2Cl)CCN1C1CCN(Cc2ccc(Cl)c(F)c2)CC1 [Compound 242]	< 25 nM
CC[C@H]1CN(c2ncc(NS(C)(=O)=O)cc2Cl)CCN1C1CCN(Cc2ccc(Cl)cc2F)CC1 [Compound 7]	< 25 nM
CC[C@H]1CN(c2ncc(NS(=O)(=O)C3CC3)cc2Cl)CCN1C1CCN(Cc2ccc(Cl)cc2F)CC1 [Compound 22]	< 25 nM

The remaining lines, values ahead:

IC50	Compound
> 100 nM	CC[C@H]1CN(c2ncc(NC3=NS(=O)(=O)N=C3NCC(C)(C)C)cc2Cl)CCN1C1CCN(Cc2ccc(Cl)cc2C#N)CC1 [Compound 278]
> 100 nM	CC[C@H]1CN(c2ncc(Nc3c(NC4CC4)c(=O)c3=O)cc2Cl)CCN1C1CCN([C@H](C(=O)NC)c2ccc(Cl)cc2)CC1 [Compound 149]
> 100 nM	CC[C@H]1CN(c2ncc(NC(=O)C3CCCCC3)cc2Cl)CCN1C1CCN(Cc2ccc(Cl)cc2F)CC1 [Compound 195]
< 25 nM	CC[C@H]1CN(c2ncc(Nc3c(NC4CC4)c(=O)c3=O)cc2Cl)CCN1C1CCN(Cc2ccc(Cl)cc2C(=O)OC)CC1 [Compound 91]
< 25 nM	CC[C@H]1CN(c2ncc(Nc3c(NCCO)c(=O)c3=O)cc2Cl)CCN1C1CCN(Cc2ccc(Cl)cc2C(N)=O)CC1 [Compound 72]
< 25 nM	CC[C@H]1CN(c2ncc(Nc3c(NC4CC4)c(=O)c3=O)cc2Cl)CCN1C1CCN(Cc2ccc(OC(F)F)cc2)CC1 [Compound 74]
> 100 nM	Cc1ccc(CN2CCC(N3CCN(c4ncc(NS(C)(=O)=O)cc4Cl)C[C@@H]3C)CC2)c(C)c1 [Compound 49]
> 100 nM	COc1ccc(CN2CCC(N3C[C@H](C)N(c4ncc(Nc5c(NCC(F)(F)F)c(=O)c5=O)cc4Cl)C[C@H]3C)CC2)cc1 [Compound 117]
< 25 nM	CC[C@H]1CN(c2ncc(NC(=O)C(C)C)cc2Cl)CCN1C1CCN(Cc2ccc(Cl)cc2F)CC1 [Compound 178]
> 100 nM	CC[C@H]1CN(c2ncc(NS(C)(=O)=O)cc2Cl)CCN1C1CCN(Cc2ccsc2)CC1 [Compound 60]
> 100 nM	C[C@@H]1CN(c2ncc(Nc3c(NCC(F)(F)F)c(=O)c3=O)cc2Cl)[C@@H](C)CN1C1CCN(Cc2ccccc2Sc2ccc(Cl)cc2)CC1 [Compound 138]
25 to 100 nM	CC[C@H]1CN(c2ncc(NS(C)(=O)=O)cc2Cl)CCN1C1CCN(Cc2ccc(Cl)cc2C(=O)OC)CC1 [Compound 30]
> 100 nM	CC[C@H]1CN(c2ncc(Nc3c(NC4CC4)c(=O)c3=O)cc2Cl)CCN1C1CCN([C@@H](C(N)=O)c2ccc(Cl)cc2)CC1 [Compound 167]
< 25 nM	CC[C@H]1CN(c2ncc(NC(C)=O)cc2Cl)CCN1C1CCN(Cc2ccc(Cl)cc2F)CC1 [Compound 177]
> 100 nM	C[C@@H]1CN(c2ncc(Nc3c(NCC(F)(F)F)c(=O)c3=O)cc2Cl)[C@@H](C)CN1C1CCN(Cc2ccco2)CC1 [Compound 142]
> 100 nM	Cc1cc(Nc2c(NCC(F)(F)F)c(=O)c2=O)cnc1N1C[C@@H](C)N(C2CCN(C(=O)c3ccc(C(F)(F)F)cc3)CC2)C[C@@H]1C [Compound 164]
> 100 nM	COC(=O)c1ccc(CN2CCC(N3C[C@H](C)N(c4ncc(Nc5c(NCC(F)(F)F)c(=O)c5=O)cc4Cl)C[C@H]3C)CC2)cc1 [Compound 123]
25 to 100 nM	CC[C@H]1CN(c2ncc(NC3=NS(=O)(=O)N=C3NC(C)(C)C)cc2Cl)CCN1C1CCN(Cc2ccc(Cl)cc2F)CC1 [Compound 255]
> 100 nM	CC[C@H]1CN(c2ncc(NS(C)(=O)=O)cc2Cl)CCN1C1CCN(C(=O)c2ccc(Cl)c(Cl)c2)CC1 [Compound 63]
< 25 nM	CC[C@H]1CN(c2ncc(NC3=NS(=O)(=O)N=C3NCCO)cc2Cl)CCN1C1CCN(Cc2ccc(Cl)cc2F)CC1 [Compound 238]
